In brackets after ≈: the same amount, converted by molar mass.
Experiments:
Aqueous solubility = type: physicochemical
Galectin-1 = Galectin-1 (Homo sapiens, UniProt P09382); test: Fluorescence anisotropy assay, inhibition of galectin / fluorescein tagged saccharide probe interaction; type: binding
Experimental: (§1) The affinity of Example 1-28 for galectins were determined by a fluorescence anisotropy assay where the compound was used as an inhibitor of the interaction between galectin and a fluorescein tagged saccharide probe as described Sörme, P., Kahl-Knutsson, B., Huflejt, M., Nilsson, U. J., and Leffler H. (2004) Fluorescence polarization as an analytical tool to evaluate galectin-ligand interactions. Anal. Biochem. 334: 36-47, (Sörme et al., 2004) and Monovalent interactions of Galectin-1 By Salomonsson, Emma; Larumbe, Amaia; Tejler, Johan; Tullberg, Erik; Rydberg, Hanna; Sundin, Anders; Khabut, Areej; Frejd, Torbjorn; Lobsanov, Yuri D.; Rini, James M.; et al, From Biochemistry (2010), 49(44), 9518-9532, (Salomonsson et al., 2010).

Galectin-3 = Galectin-3 (Homo sapiens, UniProt P17931); test: as above; type: binding
Chain of Galectin-3 (P17931 whole entry): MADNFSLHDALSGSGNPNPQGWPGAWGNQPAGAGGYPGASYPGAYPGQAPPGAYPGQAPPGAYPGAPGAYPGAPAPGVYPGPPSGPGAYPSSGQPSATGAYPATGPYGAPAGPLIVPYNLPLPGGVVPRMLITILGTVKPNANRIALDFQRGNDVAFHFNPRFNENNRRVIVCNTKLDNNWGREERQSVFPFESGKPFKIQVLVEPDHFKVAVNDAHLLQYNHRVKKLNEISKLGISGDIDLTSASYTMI
Experimental: as §1

galectins = conditions: cited from earlier work

Chain of Galectin-1 (P09382 whole entry): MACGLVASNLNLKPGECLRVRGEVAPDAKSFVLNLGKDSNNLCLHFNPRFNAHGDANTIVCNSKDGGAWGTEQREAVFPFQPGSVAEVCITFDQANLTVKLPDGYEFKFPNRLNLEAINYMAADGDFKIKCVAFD

SMILES | solubility (Aqueous solubility) | Kd (Galectin-1) | Kd (Galectin-3) | affinity, times lower than lactose (galectins; relative to lactose) | Kd (galectins; all galectins)
CS(=O)(=O)NC(=O)COC1C(n2cc(-c3cc(F)c(Cl)c(F)c3)nn2)[C@@H](O)C(CO)O[C@@H]1Sc1ccc(Cl)c(Cl)c1 (stereo in doubt) [Example 9, 3,4-Dichlorphenyl 3-[4-(4-chloro-3,5-difluorophenyl)-1H-1,2,3-triazol-1-yl]-3-deoxy-2-O-[2-(methylsulfonamido)-2-oxoethyl]-1-thio-α-D-galactopyranoside] | 2900 µg/mL (≈ 4.3 mM) | 3 µM | 0.023 µM | – | –
O=C[C@H](O)[C@@H](O)[C@@H](O)[C@H](O)CO [D-galactose] | – | – | – | 50-100 times | –
O=P(O)(O)OCO[C@@H]1[C@@H](n2cc(-c3cc(F)c(F)c(F)c3)nn2)[C@@H](O)[C@@H](CO)O[C@@H]1Sc1cncc(Br)c1 [Example 5, 5-Bromopyridin-3-yl 3-deoxy-3-[4-(3,4,5-trifluorophenyl)-1H-1,2,3-triazol-1-yl]-2-O-[(phosphonooxy)methyl]-1-thio-α-D-galactopyranoside] | > 10000 µg/mL | 3.83 µM | 0.012 µM | – | –
O=C(O)CO[C@@H]1[C@@H](n2cc(-c3cc(F)c(Cl)c(F)c3)nn2)[C@@H](O)[C@@H](CO)O[C@@H]1Sc1ccc(Cl)c(Cl)c1 [Example 7, 3,4-Dichlorphenyl 2-O-carboxymethyl-3-[4-(4-chloro-3,5-difluorophenyl)-1H-1,2,3-triazol-1-yl]-3-deoxy-1-thio-α-D-galactopyranoside] | 2000 µg/mL (≈ 3.35 mM) | 2 µM | 0.0085 µM | – | –
O=C(O)CO[C@@H]1[C@@H](n2cc(-c3cc(F)c(F)c(F)c3)nn2)[C@@H](O)[C@@H](CO)O[C@@H]1Sc1cncc(Br)c1 [Example 8, 5-Bromopyridin-3-yl 2-O-carboxymethyl-3-deoxy-3-[4-(3,4,5-trifluorophenyl)-1H-1,2,3-triazol-1-yl]-1-thio-α-D-galactopyranoside] | 1800 µg/mL (≈ 3.04 mM) | 1.8 µM | 0.007 µM | – | –
OC[C@H]1O[C@H](Sc2cncc(Br)c2)[C@H](OCc2ncc[nH]2)[C@@H](n2cc(-c3cc(F)c(F)c(F)c3)nn2)[C@H]1O [Example 15, 5-Bromopyridin-3-yl 3-deoxy-3-[4-(3,4,5-trifluorophenyl)-1H-1,2,3-triazol-1-yl]-2-O-[(1H-imidazol-2-yl)methyl]-1-thio-α-D-galactopyranoside] | – | 9.5 µM | 0.007 µM | – | –
Cn1ccnc1CO[C@@H]1[C@@H](n2cc(-c3cc(F)c(F)c(F)c3)nn2)[C@@H](O)[C@@H](CO)O[C@@H]1Sc1cncc(Br)c1 [Example 16, 5-Bromopyridin-3-yl 3-deoxy-3-[4-(3,4,5-trifluorophenyl)-1H-1,2,3-triazol-1-yl]-2-O-[(1-methyl-1H-imidazol-2-yl)methyl]-1-thio-α-D-galactopyranoside] | – | 6.4 µM | 0.057 µM | – | –
OC[C@H]1O[C@H](Sc2cncc(Br)c2)[C@H](OCc2ncco2)[C@@H](n2cc(-c3cc(F)c(F)c(F)c3)nn2)[C@H]1O [Example 17, 5-Bromopyridin-3-yl 3-deoxy-3-[4-(3,4,5-trifluorophenyl)-1H-1,2,3-triazol-1-yl]-2-O-[(oxazol-2-yl)methyl]-1-thio-α-D-galactopyranoside] | – | 2.8 µM | 0.024 µM | – | –
OC[C@H]1O[C@@H](O[C@H]2[C@H](O)[C@@H](O)C(O)O[C@@H]2CO)[C@H](O)[C@@H](O)[C@H]1O (some centres unmarked) [lactose] | – | – | – | – | 500 to 1000 µM

Continued, in another order:

solubility (Aqueous solubility) | Kd (Galectin-1) | Kd (Galectin-3) | SMILES | affinity, times lower than lactose (galectins; relative to lactose) | Kd (galectins; all galectins)
– | 14.8 µM | 0.13 µM | OC[C@H]1O[C@H](Sc2cncc(Br)c2)[C@H](OCc2cnco2)[C@@H](n2cc(-c3cc(F)c(F)c(F)c3)nn2)[C@H]1O [Example 18, 5-Bromopyridin-3-yl 3-deoxy-3-[4-(3,4,5-trifluorophenyl)-1H-1,2,3-triazol-1-yl]-2-O-[(oxazol-5-yl)methyl]-1-thio-α-D-galactopyranoside] | – | –
– | 2.9 µM | 0.032 µM | OC[C@H]1O[C@H](Sc2cncc(Br)c2)[C@H](OCc2ccon2)[C@@H](n2cc(-c3cc(F)c(F)c(F)c3)nn2)[C@H]1O [Example 19, 5-Bromopyridin-3-yl 3-deoxy-3-[4-(3,4,5-trifluorophenyl)-1H-1,2,3-triazol-1-yl]-2-O-[(isoxazol-3-yl)methyl]-1-thio-α-D-galactopyranoside] | – | –
– | 29.7 µM | 0.087 µM | OCC1O[C@H](Sc2ccc(Cl)c(Cl)c2)C(OCc2cocn2)C(n2cc(-c3cc(F)c(Cl)c(F)c3)nn2)[C@H]1O (stereo partly drawn) [Example 20, 3,4-Dichlorphenyl 3-[4-(4-chloro-3,5-difluorophenyl)-1H-1,2,3-triazol-1-yl]-3-deoxy-2-O-[(oxazol-4-yl)methyl]-1-thio-α-D-galactopyranoside] | – | –
– | 8.6 µM | 0.018 µM | OC[C@H]1O[C@H](Sc2cncc(Br)c2)[C@H](OCc2cscn2)[C@@H](n2cc(-c3cc(F)c(F)c(F)c3)nn2)[C@H]1O [Example 21, 5-Bromopyridin-3-yl 3-deoxy-3-[4-(3,4,5-trifluorophenyl)-1H-1,2,3-triazol-1-yl]-2-O-[(thiazol-4-yl)methyl]-1-thio-α-D-galactopyranoside] | – | –
– | 1.9 µM | 0.021 µM | OC[C@H]1O[C@H](Sc2cncc(Br)c2)[C@H](OCc2cncs2)[C@@H](n2cc(-c3cc(F)c(F)c(F)c3)nn2)[C@H]1O [Example 22, 5-Bromopyridin-3-yl 3-deoxy-3-[4-(3,4,5-trifluorophenyl)-1H-1,2,3-triazol-1-yl]-2-O-[(thiazol-5-yl)methyl]-1-thio-α-D-galactopyranoside] | – | –
– | 2.6 µM | 0.041 µM | OC[C@H]1O[C@H](Sc2cncc(Br)c2)[C@H](OCc2nccs2)[C@@H](n2cc(-c3cc(F)c(F)c(F)c3)nn2)[C@H]1O [Example 23, 5-Bromopyridin-3-yl 3-deoxy-3-[4-(3,4,5-trifluorophenyl)-1H-1,2,3-triazol-1-yl]-2-O-[(thiazol-2-yl)methyl]-1-thio-α-D-galactopyranoside] | – | –
– | 3.7 µM | 0.014 µM | CN(C)C(=O)c1ccc(Cl)cc1S[C@H]1OC(CO)[C@H](O)C(n2cc(-c3cc(F)c(F)c(F)c3)nn2)C1OCc1cscn1 (stereo partly drawn) [Example 24, 4-Chloro-N,N-dimethyl-benzamide-2-yl 3-deoxy-3-[4-(3,4,5-trifluorophenyl)-1H-1,2,3-triazol-1-yl]-2-O-[(thiazol-4-yl)methyl]-1-thio-α-D-galactopyranoside] | – | –
– | 1.2 µM | 0.004 µM | CN(C)C(=O)c1ccc(Cl)cc1S[C@H]1OC(CO)[C@H](O)C(n2cc(-c3cc(F)c(F)c(F)c3)nn2)C1OCc1nnn[nH]1 (stereo partly drawn) [Example 25, 4-Chloro-N,N-dimethyl-benzamide-2-yl 3-deoxy-3-[4-(3,4,5-trifluorophenyl)-1H-1,2,3-triazol-1-yl]-2-O-[(1H-tetrazol-5-yl)methyl]-1-thio-α-D-galactopyranoside] | – | –
– | 1.5 µM | 0.01 µM | O=C(O)CCCO[C@@H]1[C@@H](n2cc(-c3cc(F)c(F)c(F)c3)nn2)[C@@H](O)[C@@H](CO)O[C@@H]1Sc1cncc(Br)c1 [Example 26, 5-Bromopyridin-3-yl 2-O-carboxypropyl-3-deoxy-3-[4-(3,4,5-trifluorophenyl)-1H-1,2,3-triazol-1-yl]-1-thio-α-D-galactopyranoside] | – | –

Reference: patent US12497428B2, “Galactoside inhibitor of galectins” (GALECTO BIOTECH AB, priority 2018, dated 2025)
